Assays:
[1] = system: A2E-BDP present in human retinal pigment epithelial cells (ARPE-19); experiment: Screening of ability to remove A2E-fluorescent labeling substance (A2E-BDP), lysate fluorescence; assay type: cell-based; conditions: ARPE-19, 24 h, ARPE-19 loaded with 10 μM A2E-BDP 24 h, test compound 50 μM once, fluorescence ex 485/em 535 nm, read-out: Capacity (%) to remove A2E-BDP at 50 μM
Description: The human retinal pigment epithelial cell line (ARPE-19) used in the experiment was provided by ATCC (American Type Culture Collection). The ARPE-19 cell line was cultured in DMEM medium containing 10% FBS. After culture, the cells were dispensed into 96-well plates at a concentration of 4×10^3 cells/well and cultured for 24 hours. The ARPE-19 cell line was treated with A2E-fluorescent labeling substance (A2E-BDP) at a concentration of 10 μM for 24 hours to induce the accumulation of A2E-BDP in the ARPE-19 cell line.
In order to evaluate the intracellular A2E removal ability of the compound of the present invention, an easily detectable A2E-fluorescent labeling substance (A2E-BDP) was used. The ARPE-19 cells prepared by the above method were treated with each test compound at a concentration of 50 μM once, and then cultured for 24 hours. The cells were lysed by adding a cell lysis buffer containing a protease inhibitor (50 mM Tris-chloride, pH 8.0, 150 mM sodium chloride, 1% NP-40, 1% sodium deoxycholate, 1% sodium dodecyl sulfate, and 2 mM ethylenediamine tetraacetic acid) to each 96-well. The prepared cell lysate was transferred to a white 96-well plate, and the fluorescence intensity was measured using a fluorescence microplate reader (VICTOR™ X3, Perkin Elmer, USA) (excitation 485 nm, emission 535 nm).

[2] = system: LC3-II; experiment: Autophagy activation in ARPE-19 (LC3-II Western, GFP-LC3 puncta); assay type: cell-based, human; conditions: 12 h
Description: ARPE-19 was dispensed into a 6-well plate at a concentration of 1×10^5 cells/well and cultured for 24 hours. Then, cells were treated with example 17 compound of the present invention at concentrations of 10, 25, and 50 μM for 12 hours. Then, a cell lysis buffer containing a protease inhibitor was added to prepare a cell lysate. The LC3-II level was measured by Western immunoblotting using an anti-LC3-II antibody (Cell Signaling Technology, MA, USA). As an internal control, an antibody against β-actin (Cell Signaling Technology) was used and measured by Western immunoblotting in the same manner as above, and is shown in FIG. 6 (upper graph).
Meanwhile, intracellular autophagosome formation was observed as follows. The ARPE-19 cells were transfected with a plasmid expressing GFP-LC3 (Addgene Inc., MA, USA) using Lipofectamine™ 2000 reagent (Invitrogen, Carlsbad, CA, USA). After 48 hours of culture, the cells were treated with example 17 compound of the present invention at a concentration of 25 μM. After additional 12 hours of culture, the cells were fixed using 4% paraformaldehyde for 10 minutes. The cells were then washed three times with PBS every 5 minutes. Finally, the puncta formation of GFP-LC3 was observed using a confocal laser scanning microscope (Nikon, Tokyo, Japan). […]

[3] = system: LC3-II (autophagy flux); experiment: Autophagy flux in ARPE-19 with or without bafilomycin A1; assay type: cell-based, human; conditions: 10, 25, 50 μM, 12 h, bafilomycin A1 2 nM 4 h, FIG. 7
Description: Autophagy flux was measured by comparing the degree of change in LC3-II protein formation by treatment with example 17 compound of the present invention in the presence and absence of bafilomycin A1 (Abcam, Cambridge, United Kingdom) by Western blotting (Seranova E. et al. Autophagy: Methods and Protocols, Methods in Molecular Biology, vol. 1880, pp 389-428, 2019, https://doi.org/10.1007/978-1-4939-8873-0_26).
The autophagy flux measurement in this experiment used saturating concentrations of bafilomycin A1, known as an autophagy inhibitor. […] Therefore, the effect of the example compound of the present invention on autophagy flux can be determined by examining the level of LC3-II following treatment with the example compound of the present invention in the presence or absence of saturating concentrations of bafilomycin A1.
Specifically, in this experiment, ARPE-19 cell lines were seeded in 6-well plates at a concentration of 1×10^5 cells/well and cultured for 24 hours. […] The LC3-II level was measured by the Western immunoblotting method using a specific anti-LC3-II antibody (Cell Signaling Technology, MA, USA). Meanwhile, after treating with example 17 compound in the same manner as above under the condition of treating with bafilomycin A1 at a concentration of 2 nM for 4 hours, the amount of LC3-II was measured by the Western immunoblotting method. […]

[4] = system: LC3-II; experiment: Autophagy activation in A2E-accumulated ARPE-19 (LC3-II Western); assay type: cell-based, human; conditions: 25, 50, 100 μM, 12 h; FIG. 8
Description: A2E is known to inhibit intracellular autophagy. Therefore, it was measured whether example 17 compound of the present invention also increases autophagy in ARPE-19 cell lines accumulating A2E.
Specifically, ARPE-19 cell lines were dispensed into 6-well plates at a concentration of 1×10^5 cells/well and cultured for 24 hours. The cells were treated with A2E at a concentration of […] for 24 hours. Thereafter, the cells were treated with example 17 compound of the present invention at concentrations of 25, 50, and 100 μM for 12 hours each. Thereafter, cell lysate preparation and measurement of LC3-II by Western immunoblotting were performed in the same manner as in Experimental Example 7, and the results are shown in FIG. 8.

**Q.** For `C=CCOCc1cc(-c2cc(CC=C)ccc2OC)no1` [Example 17, 3-(5-allyl-2-methoxyphenyl)-5-((allyloxy)methyl)isoxazole], which inhibition at 50 µM [1] is on record?
**A.** ≥ 60%

**Q.** And the “LC3-II level (Western immunoblotting)” value ([2]; ARPE-19, 10, 25, 50 μM, FIG. 6 graph)?
**A.** an increase in LC3-II

**Q.** What about the “puncta formation of GFP-LC3 (confocal microscope)” value ([2]; GFP-LC3 transfected ARPE-19, 25 μM, FIG. 6 photograph) of the same compound?
**A.** intracellular LC3-II puncta were observed

**Q.** And the “autophagy flux (difference in LC3-II with/without bafilomycin A1)” value [3]?
**A.** significantly increases autophagy flux

**Q.** What about the “LC3-II level in A2E-accumulated ARPE-19” value [4] of the same compound?
**A.** an increase in LC3-II
